Data taken from patent US20260265262A1, “CDK2 INHIBITORS AND METHODS OF USING THE SAME” (Cedilla Therapeutics, Inc., priority 2022, published 2026).

Key:
Kuramochi cells = assay: IncuCyte cell proliferation assay; format: cell-based; conditions: Kuramochi cells labeled with mApple-H2B, cell count 0 to 72 hours, 20 μM top concentration; read-out: IncuCyte Kuramochi RB-WT: IC50
Procedure: IncuCyte® assay was used to measure the effect of disclosed compounds on cell proliferation. Fluorescent microscopy images of cells were taken immediately after compound treatment and 72 hours later. Image analysis software was used to obtain cell counts as a function of compound concentration. Kuramochi cells labeled with mApple-H2B were seeded on 384-well assay-ready plates. Plates were placed in an IncuCyte® (Sartorius) and scanned at 0 and 72 hours. IncuCyte® software was used to count the number of fluorescent nuclei in each well. The fold change in cell count from 0 to 72 hours in wells treated with increasing compounds concentrations (10 pts, 1/2 log dilution, 20 μM top concentration) was normalized to DMSO control wells. The normalized cell counts were fit with dose response curves and a […] was calculated.

CDK2/Cyclin E1 = CDK2/Cyclin E1 (Homo sapiens, UniProt P24941); assay: ADP-Glo Luminescent Kinase Assay (CDK2/E1-37C); format: biochemical; conditions: 0.18 nM CDK2/Cyclin E1, 100 μM ATP, 1.5 μM Histone H1, 37° C., 60 min pre-incubation; read-out: ADPGLO (CDK2/E1-37C): IC50
Procedure: Inhibition of CDK2/Cyclin E1 activity by the presence of small molecules was evaluated using ADP-Glo Luminescent Kinase Assay (Promega). Activated CDK2/Cyclin E1 was incubated with its substrate Histone H1 (SignalChem H10-54N) in the kinase reaction buffer (100 μM ATP, 50 mM HEPES pH 7.5, 10 mM MgCl2, 1 mM EDTA, 2 mM DTT, 0.01% Brij35, 0.5 mg/mL BSA). Luminescence was recorded with an Envision plate reader (PerkinElmer).
Dose titrations of inhibitors in 100% DMSO were combined with 0.36 nM CDK2/Cyclin E1 in reaction buffer. The mixtures were incubated for 60 minutes at 37° C. before the addition of ATP and Histone H1 substrate to initiate the kinase reaction. The final conditions were 0.18 nM CDK2/Cyclin E1, 100 μM ATP, and 1.5 μM Histone H1. The reactions were incubated at 37° C. for 90 minutes before being stopped with the addition of ADP-Glo reagent. This mixture was incubated at room temperature for 60 minutes before Kinase Detection Solution is added to generate luminescence. The stopped reactions were analyzed on an Envision plate reader. The conversion ratios were normalized to yield % activity, plotted against compound concentration, and fit to a four-parameter equation to determine the IC50 for each compound.

Row | SMILES | IC50 (CDK2/Cyclin E1) [µM] | IC50 (Kuramochi cells) [µM]
1 | CNC(=O)[C@@H](NC(=O)[C@@H]1CN(C(=O)c2cncs2)CC12CN(CC1CCCO1)C2)[C@@H](C)OCC12CCC(CC1)OC2 (stereo partly shown) [Example I-48] | 5 to 10 | > 20
2 | C[C@@H](OCC1(C(F)(F)F)CC1)[C@H](NC(=O)[C@@H]1CN(C(=O)c2cnn(Cc3ccc(C(F)(F)F)cc3)c2)CC12CN(C(=O)C1(C(F)(F)F)CC1)C2)C(=O)N1CCC(c2ccc(C(=O)O)cc2)CC1 [Example I-68, 4-(1-(N—((S)-6-(1-(4-(trifluoromethyl)benzyl)-1H-pyrazole-4-carbonyl)-2-(1-(trifluoromethyl)cyclopropane-1-carbonyl)-2,6-diazaspiro[3.4]octane-8-carbonyl)-O-((1-(trifluoromethyl)cyclopropyl)methyl)-L-threonyl)piperidin-4-yl)benzoic acid] | 0.5 to 5 | > 20
3 | CC1(C)C[C@@H]1C(=O)N1CC2(CN(C(=O)c3cncs3)C[C@H]2C(=O)N2CCC[C@@H](N(CC(=O)NS(C)(=O)=O)CC3CCCCC3)C2)C1 [Example I-70, 2-((cyclohexylmethyl)((R)-1-((S)-2-((S)-2,2-dimethylcyclopropane-1-carbonyl)-6-(thiazole-5-carbonyl)-2,6-diazaspiro[3.4]octane-8-carbonyl)piperidin-3-yl)amino)-N-(methylsulfonyl)acetamide] | > 10 | > 20
4 | CC1(C)C[C@@H]1C(=O)N1CC2(CN(C(=O)c3cncs3)C[C@H]2C(=O)N2CCC[C@@H](N(CC(=O)O)CC3CCCCC3)C2)C1 [Example I-71] | > 10 | > 20
5 | CC1(C)C[C@@H]1C(=O)N1CC2(CN(C(=O)c3cncs3)C[C@H]2C(=O)N2CCC[C@H](N(CC(=O)NS(C)(=O)=O)CC3CCCCC3)C2)C1 [Example I-72, 2-((cyclohexylmethyl)((S)-1-((S)-2-((S)-2,2-dimethylcyclopropane-1-carbonyl)-6-(thiazole-5-carbonyl)-2,6-diazaspiro[3.4]octane-8-carbonyl)piperidin-3-yl)amino)-N-(methylsulfonyl)acetamide] | > 10 | > 20
6 | C[C@@H](OCC12CCC(CC1)OC2)[C@H](NC(=O)[C@@H]1CN(C(=O)c2cnn(Cc3ccc(C(F)(F)F)cc3)c2)CC12CN(C(=O)C1(C(F)(F)F)CC1)C2)C(=O)NCCC(=O)NS(C)(=O)=O [Example I-73, (S)—N-((2S,3R)-3-((2-oxabicyclo[2.2.2]octan-4-yl)methoxy)-1-((3-(methylsulfonamido)-3-oxopropyl)amino)-1-oxobutan-2-yl)-6-(1-(4-(trifluoromethyl)benzyl)-1H-pyrazole-4-carbonyl)-2-(1-(trifluoromethyl)cyclopropane-1-carbonyl)-2,6-diazaspiro[3.4]octane-8-carboxamide] | 5 to 10 | > 20
7 | CCOC(=O)CN(CC1CCCCC1)[C@H]1CCCN(C(=O)[C@@H]2CN(C(=O)c3cncs3)CC23CN(C(=O)[C@H]2CC2(C)C)C3)C1 [Example I-74] | 5 to 10 | > 20
8 | C[C@@H](OCC12CCC(CC1)OC2)[C@H](NC(=O)[C@@H]1CN(C(=O)c2cnn(Cc3ccc(C(F)(F)F)cc3)c2)CC12CN(C(=O)C1(C(F)(F)F)CC1)C2)C(=O)NCCC(=O)O [Example I-75] | 5 to 10 | > 20
9 | C[C@@H](OCC1CCOCC1)[C@H](NC(=O)[C@@H]1CN(C(=O)c2cnn(Cc3ccc(C(F)(F)F)cc3)c2)CC12CN(C(=O)C1(C(F)(F)F)CC1)C2)C(=O)N1CCC(c2nccs2)CC1 [Example I-79, (S)—N-((2S,3R)-1-oxo-3-((tetrahydro-2H-pyran-4-yl)methoxy)-1-(4-(thiazol-2-yl)piperidin-1-yl)butan-2-yl)-6-(1-(4-(trifluoromethyl)benzyl)-1H-pyrazole-4-carbonyl)-2-(1-(trifluoromethyl)cyclopropane-1-carbonyl)-2,6-diazaspiro[3.4]octane-8-carboxamide] | < 0.5 | 0.5 to 5
10 | C[C@@H](OCC1(C(F)(F)F)CC1)[C@H](NC(=O)[C@@H]1CN(C(=O)c2cnn(Cc3ccc(C(F)(F)F)cc3)c2)CC12CN(C(=O)C1(C(F)(F)F)CC1)C2)C(=O)N1CCC(c2nccs2)CC1 [Example I-80, (S)—N-((2S,3R)-1-oxo-1-(4-(thiazol-2-yl)piperidin-1-yl)-3-((1-(trifluoromethyl)cyclopropyl)methoxy)butan-2-yl)-6-(1-(4-(trifluoromethyl)benzyl)-1H-pyrazole-4-carbonyl)-2-(1-(trifluoromethyl)cyclopropane-1-carbonyl)-2,6-diazaspiro[3.4]octane-8-carboxamide] | 0.5 to 5 | 0.5 to 5
11 | C[C@@H](OCC12CCC(CC1)OC2)[C@H](NC(=O)[C@@H]1CN(C(=O)c2cnn(Cc3ccc(C(F)(F)F)cc3)c2)CC12CN(C(=O)C1(C(F)(F)F)CC1)C2)C(=O)N1CCC(c2ccc(C(=O)O)c(O)c2)CC1 [Example I-81, 4-(1-(O-((2-Oxabicyclo[2.2.2]octan-4-yl)methyl)-N—((S)-6-(1-(4-(trifluoromethyl)benzyl)-1H-pyrazole-4-carbonyl)-2-(1-(trifluoromethyl)cyclopropane-1-carbonyl)-2,6-diazaspiro[3.4]octane-8-carbonyl)-L-threonyl)piperidin-4-yl)-2-hydroxybenzoic acid] | < 0.5 | > 20

More lines, main results first:

Row | IC50 (CDK2/Cyclin E1) [µM] | SMILES | IC50 (Kuramochi cells) [µM]
12 | < 0.5 | C[C@@H](OCC1CCCCC1)[C@H](NC(=O)[C@@H]1CN(C(=O)c2cnn(Cc3ccccc3)c2)CC12CN(C(=O)[C@H]1CC1(C)C)C2)C(=O)N1CCCC[C@H]1C(=O)O [Example I-36, (S)-1-(N—((S)-6-(1-benzyl-1H-pyrazole-4-carbonyl)-2-((S)-2,2-dimethylcyclopropane-1-carbonyl)-2,6-diazaspiro[3.4]octane-8-carbonyl)-O-(cyclohexylmethyl)-L-threonyl)piperidine-2-carboxylic acid] | > 20
13 | < 0.5 | CNC(=O)C(C)(C)CNC(=O)[C@@H](NC(=O)[C@@H]1CN(C(=O)c2cnn(Cc3ccccc3)c2)CC12CN(C(=O)[C@H]1CC1(C)C)C2)[C@@H](C)OCC1CCCCC1 [Example I-37, (S)-6-(1-benzyl-1H-pyrazole-4-carbonyl)-N-((2S,3R)-3-(cyclohexylmethoxy)-1-((2,2-dimethyl-3-(methylamino)-3-oxopropyl)amino)-1-oxobutan-2-yl)-2-((S)-2,2-dimethylcyclopropane-1-carbonyl)-2,6-diazaspiro[3.4]octane-8-carboxamide] | 5 to 20
14 | < 0.5 | C[C@@H](OCC12CCC(CC1)OC2)[C@H](NC(=O)[C@@H]1CN(C(=O)c2cnn(Cc3ccccc3C(=O)O)c2)CC12CN(C(=O)C1(C(F)(F)F)CC1)C2)C(=O)N1CCC2(CCNCC2)CC1 [Example I-60, 2-((4-((S)-8-(((2S,3R)-3-((2-oxabicyclo[2.2.2]octan-4-yl)methoxy)-1-oxo-1-(3,9-diazaspiro[5.5]undecan-3-yl)butan-2-yl)carbamoyl)-2-(1-(trifluoromethyl)cyclopropane-1-carbonyl)-2,6-diazaspiro[3.4]octane-6-carbonyl)-1H-pyrazol-1-yl)methyl)benzoic acid] | 0.5 to 5
15 | < 0.5 | C[C@@H](OCC12CCC(CC1)OC2)[C@H](NC(=O)[C@@H]1CN(C(=O)c2cnc(O)cn2)CC12CN(C(=O)C1(C(F)(F)F)CC1)C2)C(=O)N1CCC(c2ccc(C(F)(F)F)c(C(=O)O)c2)CC1 [Example I-63] | > 20
16 | < 0.5 | C[C@@H](OCC12CCC(CC1)OC2)[C@H](NC(=O)[C@@H]1CN(C(=O)c2cnn(Cc3ccccc3)c2)CC12CN(C(=O)C1(C(F)(F)F)CC1)C2)C(=O)N1CCC(c2nccs2)CC1 [Example I-69, (S)—N-((2S,3R)-3-(2-oxabicyclo[2.2.2]octan-4-ylmethoxy)-1-oxo-1-(4-(thiazol-2-yl)piperidin-1-yl)butan-2-yl)-6-(1-benzyl-1H-pyrazole-4-carbonyl)-2-(1-(trifluoromethyl)cyclopropanecarbonyl)-2,6-diazaspiro[3.4]octane-8-carboxamide] | 0.5 to 5
17 | < 0.5 | C[C@@H](OCC1CCOCC1)[C@H](NC(=O)[C@@H]1CN(C(=O)c2cnc(O)cn2)CC12CN(C(=O)C1(C(F)(F)F)CC1)C2)C(=O)N1CCC(C(F)(F)F)CC1 [Example I-78, (S)-6-(5-hydroxypyrazine-2-carbonyl)-N-((2S,3R)-1-oxo-3-((tetrahydro-2H-pyran-4-yl)methoxy)-1-(4-(trifluoromethyl)piperidin-1-yl)butan-2-yl)-2-(1-(trifluoromethyl)cyclopropane-1-carbonyl)-2,6-diazaspiro[3.4]octane-8-carboxamide] | > 20
